Reference: DBAASP
Converted amounts (≈) assume the structure as drawn.

Columns and labels:
Assay in all cases: ≥ marks a high value that may be exact or a test limit, other limits are often not marked, values filed in µg/mL are converted to µM
[1] = tested on: Escherichia coli ATCC 25922
[2] = tested on: Pseudomonas aeruginosa PAO1
[3] = tested on: Staphylococcus aureus USA 300
[4] = tested on: Candida albicans
[5] = tested on: Klebsiella pneumoniae
[6] = tested on: Micrococcus luteus
[7] = tested on: Proteus mirabilis
[8] = tested on: Pseudomonas aeruginosa
[9] = tested on: Salmonella typhimurium
[10] = tested on: Serratia marcescens
[11] = tested on: Shigella dysenteriae
[12] = tested on: Bacillus cereus
[13] = tested on: Escherichia coli
[14] = tested on: Leuconostoc lactis
[15] = tested on: Listeria innocua
[16] = tested on: Pasteurella multocida
[17] = tested on: Staphylococcus aureus
[18] = tested on: Staphylococcus epidermidis
[19] = tested on: Streptococcus uberis
[20] = tested on: Acinetobacter baumannii
[21] = tested on: Candida albicans ATCC 2002
[22] = tested on: Enterococcus faecium
[23] = tested on: Staphylococcus aureus ATCC 2592
[24] = tested on: Enterococcus faecalis
[25] = tested on: Klebsiella pneumoniae ATCC 13883
[26] = tested on: Escherichia coli K-12

| SMILES | MIC [1] [µM] | MIC [3] [µM] | MIC [6] [µM] | MIC [12] [µM] | MIC [13] [µM] | MIC [14] [µM] | MIC [15] [µM] | MIC [16] [µM] | MIC [17] [µM] | MIC [18] [µM] | MIC [19] [µM] | other results |
| --- | --- | --- | --- | --- | --- | --- | --- | --- | --- | --- | --- | --- |
| CC(C)C[C@H](NC(=O)[C@H](CC(C)C)NC(=O)[C@H](CCCCN)NC(=O)CNC(=O)[C@H](C)NC(=O)[C@H](C)NC(=O)[C@H](CCCCN)NC(=O)[C@H](CC(C)C)NC(=O)[C@H](C)NC(=O)[C@H](CO)NC(=O)[C@H](CC(C)C)NC(=O)[C@H](CC(C)C)NC(=O)CN)C(N)=O [GLLSALKAAGKLL] | 12.5 (≈ 15.7 µg/mL) | 12.5 (≈ 15.7 µg/mL) |  |  |  |  |  |  |  |  |  | MIC [2]: > 25 µM |
| CC[C@H](C)[C@H](NC(=O)[C@H](C)NC(=O)[C@H](CCSC)NC(=O)CNC(=O)[C@H](CCCCN)NC(=O)[C@@H](NC(=O)[C@H](CO)NC(=O)[C@H](CC(=O)O)NC(=O)[C@H](CC(C)C)NC(=O)[C@H](CC(C)C)NC(=O)CN)[C@@H](C)CC)C(=O)N[C@@H](CO)C(=O)N[C@@H](C)C(=O)NCC(=O)N[C@@H](CCCCN)C(=O)NCC(=O)N[C@@H](C)C(=O)N[C@@H](CC(C)C)C(=O)N[C@@H](CCC(N)=O)C(=O)N[C@@H](CC(N)=O)C(=O)N[C@@H](CC(C)C)C(=O)N[C@@H](CC(C)C)C(=O)N[C@@H](CCCCN)C(=O)N[C@H](C(=O)N[C@@H](C)C(=O)N[C@@H](CO)C(=O)N[C@H]1CSSC[C@@H](C(=O)O)NC(=O)[C@H]([C@@H](C)O)NC(=O)[C@H](CCCCN)NC(=O)[C@H](CC(=O)O)NC(=O)[C@H](CC(C)C)NC(=O)[C@H](CCCCN)NC1=O)C(C)C [GLLDSIKGMAISAGKGALQNLLKVASCKLDKTC] |  |  | 0.747 (≈ 2.5 µg/mL) |  |  |  |  |  |  |  |  | MIC [4]: 29.9 µM (≈ 99.9 µg/mL); MIC [5]: 2.99 µM (≈ 9.99 µg/mL); MIC [7]: ≥ 59.7 µM; MIC [8]: 22.4 µM (≈ 75 µg/mL); MIC [9]: 6.72 µM (≈ 22.5 µg/mL); MIC [10]: ≥ 59.7 µM; MIC [11]: 2.99 µM (≈ 9.99 µg/mL) |
| CC[C@H](C)[C@H](NC(=O)CNC(=O)[C@H](CO)NC(=O)[C@@H](NC(=O)[C@H](CC(C)C)NC(=O)[C@H](CCC(=O)O)NC(=O)[C@H](CO)NC(=O)[C@H](C)NC(=O)[C@H](CCCCN)NC(=O)[C@H](CCC(=O)O)NC(=O)[C@H](CCCCN)NC(=O)[C@@H](NC(=O)[C@H](CCCCN)NC(=O)[C@H](CCC(=O)O)NC(=O)[C@H](Cc1c[nH]c2ccccc12)NC(=O)[C@H](CC(C)C)NC(=O)CN)[C@@H](C)CC)C(C)C)C(=O)N[C@H](C(=O)N[C@@H](CCC(=O)O)C(=O)NCC(=O)N[C@H](C(=O)N[C@@H](CCCCN)C(=O)O)C(C)C)C(C)C [GLWEKIKEKASELVSGIVEGVK] |  |  | 1.25 (≈ 3 µg/mL) | ≥ 41.7 | > 41.7 | ≥ 41.7 | ≥ 41.7 | ≥ 41.7 | > 41.7 | ≥ 41.7 | ≥ 41.7 |  |
| CC[C@H](C)[C@H](NC(=O)[C@@H](NC(=O)[C@H](CO)NC(=O)[C@H](C)NC(=O)[C@@H](NC(=O)[C@H](CCCCN)NC(=O)[C@H](CCCCN)NC(=O)[C@@H](NC(=O)[C@@H](NC(=O)[C@H](CCCCN)NC(=O)[C@H](Cc1ccccc1)NC(=O)[C@H](CC(C)C)NC(=O)CN)C(C)C)[C@@H](C)CC)C(C)C)C(C)C)C(=O)NCC(=O)NCC(=O)N[C@@H](CC(C)C)C(N)=O [GLFKVIKKVASVIGGL] |  |  | 7.37 (≈ 12 µg/mL) | 30.7 (≈ 50 µg/mL) | > 61.4 | 3.68 (≈ 6 µg/mL) | ≥ 61.4 | ≥ 61.4 | 15.3 (≈ 25 µg/mL) | 7.37 (≈ 12 µg/mL) | 30.7 (≈ 50 µg/mL) |  |
| CC[C@H](C)[C@H](NC(=O)[C@H](CCCCN)NC(=O)[C@H](CS)NC(=O)[C@H](CC(C)C)NC(=O)CNC(=O)CNC(=O)[C@H](C)NC(=O)[C@@H](NC(=O)[C@H](CC(N)=O)NC(=O)[C@H](CCCCN)NC(=O)[C@H](CC(C)C)NC(=O)[C@@H](NC(=O)[C@H](CC(N)=O)NC(=O)[C@H](C)NC(=O)[C@H](Cc1c[nH]c2ccccc12)NC(=O)CN)[C@@H](C)O)C(C)C)C(=O)N[C@H](C(=O)NCC(=O)N[C@@H](C)C(=O)N[C@@H](C)C(=O)O)[C@@H](C)O [GWANTLKNVAGGLCKITGAA] | > 51.4 |  |  |  |  |  |  |  |  |  |  | MIC [20]: 19.3 µM (≈ 37.5 µg/mL); MIC [21]: ≥ 38.6 µM; MIC [22]: 19.3 µM (≈ 37.5 µg/mL); MIC [5]: > 51.4 µM; MIC [10]: ≥ 51.4 µM; MIC [23]: 19.3 µM (≈ 37.5 µg/mL) |
| CC[C@H](C)[C@H](NC(=O)[C@H](C)NC(=O)[C@@H]1CCCN1C(=O)[C@@H](NC(=O)[C@@H](NC(=O)[C@H](Cc1cnc[nH]1)NC(=O)[C@H](CO)NC(=O)[C@H](C)NC(=O)[C@@H](NC(=O)[C@H](CCCCN)NC(=O)[C@H](C)NC(=O)[C@H](CC(C)C)NC(=O)[C@@H](NC(=O)CNC(=O)[C@H](Cc1ccccc1)NC(=O)[C@H](CC(C)C)NC(=O)CN)C(C)C)C(C)C)C(C)C)C(C)C)C(=O)N[C@@H](C)C(=O)N[C@@H](CCC(=O)O)C(=O)N[C@@H](Cc1cnc[nH]1)C(=O)N[C@@H](Cc1ccccc1)C(=O)N[C@@H](CCC(N)=O)C(=O)N[C@@H](C)C(N)=O [GLFGVLAKVASHVVPAIAEHFQA] |  |  | ≥ 42.3 | ≥ 42.3 | > 42.3 | ≥ 42.3 | ≥ 42.3 | ≥ 42.3 | 21.2 (≈ 50 µg/mL) | ≥ 42.3 | 2.54 (≈ 6 µg/mL) | MIC [24]: ≥ 42.3 µM |
| CC[C@H](C)[C@H](NC(=O)[C@@H](NC(=O)[C@@H]1CCCN1C(=O)[C@@H](NC(=O)[C@@H](NC(=O)[C@H](Cc1cnc[nH]1)NC(=O)[C@@H]1CCCN1C(=O)[C@H](CC(C)C)NC(=O)[C@@H](NC(=O)[C@H](Cc1cnc[nH]1)NC(=O)[C@H](CCCCN)NC(=O)[C@H](C)NC(=O)[C@@H](NC(=O)[C@H](CO)NC(=O)CNC(=O)[C@H](CC(C)C)NC(=O)[C@@H](NC(=O)[C@H](CO)NC(=O)[C@H](CC(C)C)NC(=O)[C@H](CC(C)C)NC(=O)CN)C(C)C)C(C)C)C(C)C)C(C)C)C(C)C)C(C)C)C(=O)N[C@@H](C)C(=O)N[C@@H](CCC(=O)O)C(=O)N[C@@H](CCCCN)C(=O)N[C@@H](CC(C)C)C(N)=O [GLLSVLGSVAKHVLPHVVPVIAEKL] |  |  | 9.7 (≈ 25 µg/mL) | ≥ 38.8 | > 38.8 | 2.33 (≈ 6 µg/mL) | 19.4 (≈ 50 µg/mL) | ≥ 38.8 | > 38.8 | ≥ 38.8 | 19.4 (≈ 50 µg/mL) |  |
| CC[C@H](C)[C@H](NC(=O)[C@H](CCCCN)NC(=O)[C@H](CCC(N)=O)NC(=O)[C@@H](NC(=O)[C@@H](NC(=O)[C@H](CCCN=C(N)N)NC(=O)[C@H](CCCCN)NC(=O)[C@H](Cc1ccccc1)NC(=O)CN)[C@@H](C)CC)C(C)C)C(=O)N[C@@H](CCCN=C(N)N)C(=O)N[C@@H](CC(=O)O)C(=O)N[C@@H](Cc1ccccc1)C(=O)N[C@@H](CC(C)C)C(=O)N[C@@H](CCCN=C(N)N)C(=O)N[C@@H](CC(N)=O)C(=O)N[C@@H](CC(C)C)C(=O)N[C@H](C(N)=O)C(C)C [GFKRIVQKIRDFLRNLV] | 4.4 (≈ 9.25 µg/mL) | 2.2 (≈ 4.62 µg/mL) |  |  |  |  |  |  |  |  |  | MIC [25]: 3.1 µM (≈ 6.51 µg/mL); MIC [2]: 25 µM (≈ 52.5 µg/mL) |
| CC[C@H](C)[C@H](NC(=O)[C@H](C)NC(=O)[C@H](CCC(=O)O)NC(=O)[C@H](Cc1cnc[nH]1)NC(=O)[C@H](CC(C)C)NC(=O)CNC(=O)[C@H](CCC(N)=O)NC(=O)[C@H](Cc1ccccc1)NC(=O)[C@@H](NC(=O)[C@H](CCCCN)NC(=O)[C@H](CCCCN)NC(=O)[C@H](CC(C)C)NC(=O)[C@@H](NC(=O)[C@H](CC(N)=O)NC(=O)[C@H](CC(C)C)NC(=O)CN)[C@@H](C)O)C(C)C)C(=O)N[C@@H](CCCCN)C(=O)N[C@@H](CC(C)C)C(=O)N[C@H](C(=O)N[C@@H](CC(N)=O)C(=O)N[C@@H](CC(N)=O)C(=O)N[C@@H](Cc1cnc[nH]1)C(=O)N[C@H](C(=O)N[C@@H](CCC(N)=O)C(=O)O)C(C)C)[C@@H](C)CC [GLNTLKKVFQGLHEAIKLINNHVQ] |  | ≥ 100 |  |  |  |  |  |  |  |  |  | MIC [26]: ≥ 100 µM |
